Legend:
Format in all cases: cell-based
[1] = tested on: healthy human neonatal fibroblasts; test: Real-time PCR of undifferentiated stem cell and three germ layer marker genes in neonatal fibroblast spheroids (96-well round-bottom); details: day 20 of 3D spheroid culture, coated 96-well round-bottom; 2D control without supplement day 0 = 1.0; ΔΔCt
Description: To observe the spheroid formation and stem cell induction in healthy human neonatal fibroblasts over time, culture was performed by using a 96-well round-bottom culture vessel. An aqueous solution of the polypeptide represented by formula (1) (0.125%) (cell culture supplement) was added to a commercial polystyrene-made 96-well round-bottom culture vessel (Nunclon Delta 96U Bottom, Thermo Fisher Scientific) at 100 μL/well and allowed to stand at 4° C. for 24 hours. Thereafter, the excess cell culture supplement was removed, and the remaining solution was dried in a dryer at 37° C. for 96 hours to complete coating treatment with the cell culture supplement. Fibroblasts were maintained and cultured in a serum-free medium (Promo Cell; fibroblast basal medium, basic-FGF 5 ng/ml and insulin 2.5 μg/mL). The fibroblasts floating in the medium were seeded in the culture vessel coated with the cell culture supplement at 4×10^4 cells/well/100 μL and cultured at 37° C. under 5% CO2 conditions.
To investigate the expression mechanism of the undifferentiated stem cell marker genes found in Example 1 over time, real-time PCR analysis was performed by using the following three transcription factors: SOX2 (sex-determining region Y-box 2), OCT4 (octamer binding transcription factor 4), and NANOG (homeodomain transcription factor), and a TaqMan gene expression assay probe (B-actin) as an endogenous control gene. In the expression analysis, relative quantification was performed according to the ΔΔCt method (Delta Delta Ct method) (FIG. 8).
To determine whether stem cells induced from fibroblasts have a differentiation-inducing ability, analysis was conducted on the expression of genes associated with the three germ layers that indicate the early stages of differentiation. Fibroblasts were cultured in the same type of a 96-well culture vessel treated with the cell culture supplement as above according to the same method. Real-time PCR analysis was performed by using the following expression detection probes for the genes associated with differentiation into the three germ layers: SOX17 (sex-determining region Y-box 17; endoderm), HAND1 (Heart-and neural crest derivatives-expressed protein-1; mesoderm), and MAP2 (microtubule associated protein 2: ectoderm), and a TaqMan gene expression assay probe (ß-actin) as the endogenous control gene. In the expression analysis, relative quantification was performed according to the ΔΔCt method (Delta Delta Ct method) (FIG. 9).

[2] = tested on: healthy human neonatal fibroblasts; test: Anti-NANOG immunostaining of cells dissociated from neonatal fibroblast spheroids; details: spheroids day 20 dissociated with Accutase, 24 h further culture; nuclei of some cells, majority NANOG-negative
Description: To detect stem cells induced in fibroblast spheroids, immunostaining with a fluorescent dye-labeled antibody was used, and stem cells in the spheroid-forming cells were detected. An aqueous solution of the polypeptide represented by formula (1) (0.125%) (cell culture supplement) was added to a commercial polystyrene-made 96-well round-bottom culture vessel (Nunclon Delta 96U Bottom, Thermo Fisher Scientific) at 100 μL/well to complete coating treatment with the cell culture supplement in the same manner as in Example 2. Fibroblasts were maintained and cultured in a serum-free medium (Fujifilm Wako Pure Chemical Corporation, DMEM/F12 medium, human serum albumin recombinant 0.5 mg/mL, human transferrin recombinant 10 μg/mL, basic-FGF 5 ng/ml, and insulin 2.5 μg/mL). Fibroblasts floating in the medium were seeded in the culture vessel coated with the cell culture supplement at 2×10^4 cells/well/100 μL and cultured at 37° C. under 5% CO2 conditions. On day 20 after the start of culture, spheroids were aseptically collected from the 96-well round-bottom culture vessel. […] For the fluorescence-labeled antibody, NL493 fluorescent dye-labeled anti-NANOG antibody (fluorescent green, R&D systems) was used, and observation was performed with a fluorescence microscope.

[3] = tested on: healthy human adult mammary gland epithelial cells; test: Real-time PCR of stem cell and three germ layer marker genes in mammary gland epithelial cell spheroids
Description: The analysis of expression of gene mRNA was performed by real-time PCR.
Specifically, on day 20 from the start of culture, spheroids were collected in a 15-mL centrifuge tube and centrifuged, and then washed with phosphate buffered saline (−) and collected. Two-dimensionally cultured cells in the culture vessel that was not coated with the cell culture supplement (control) (day 0) were washed with PBS (−) after removal of the medium, and the cells were detached from the plate with 0.05% trypsin-EGTA and dissociated, followed by collecting the cells in a 15-mL centrifuge tube and washing with PBS (−) again. A NucleoZOL reagent (Macherey-Nagel) was added to the spheroids, and RNA extracted according to the protocol recommended by the reagent manufacturer was determined to be template RNA. For real-time PCR analysis, PCR probes from QuantiFast Probe RT-PCR Kits (QIAGEN; No. 204454) and TagMan Gene Expression Assay Probe (Thermo Fisher Scientific) were used. PCR analysis was performed with a Rotor-Gene Q (QIAGEN) apparatus. The genes targeted for detection were the following three transcription factors: SOX2 (sex-determining region Y-box 2), OCT4 (octamer binding transcription factor 4), and NANOG (homeodomain transcription factor) as the probes for detecting the expression of undifferentiated stem cell marker genes; and β-actin was used as an endogenous control gene (FIG. 16).
For probes for detection of genes associated with primordial three germ layers, the following three triploblastic marker genes were used: SOX17 (sex-determining region Y-box 17; endoderm), GATA6 (GATA family of zinc finger transcription factors; mesoderm), and MAP2 (microtubule associated protein 2: ectoderm). For an endogenous control gene, TaqMan Gene Expression Assay Probe of ß-actin was used (FIG. 17).
In the gene expression analysis, relative quantification was performed according to the ΔΔCt method (Delta Delta Ct method). The results of analysis according to the ΔΔCt method show the amount of a gene expressed by control cells under the conditions of “no cell culture supplement, flat-bottom 2D growth, day 0” as “1.0” in relative terms, and the increase rate in “the expression level in spheroid proliferation on day 20” was determined by comparison.

[4] = tested on: HOS-143B (human osteosarcoma); test: Study of concentration of cell culture supplement: spheroid formation; details: 96-well flat-bottom plate, 3 days of culture
Description: An aqueous solution of the polypeptide represented by formula (1) (0.5%) was diluted 4-fold to 1024-fold to prepare different diluted solutions (cell culture supplement), and 100 μl of the solution was added to each well of a commercial 96-well flat-bottom plate (CellBIND, Corning) and allowed to stand at 4° C. for 16 hours.
Thereafter, the excess cell culture supplement was removed, and the remaining solution was dried under reduced pressure at room temperature for 24 hours. HOS-143B (human osteosarcoma) was seeded at 3,000 cells/well in a culture plate coated with the cell culture supplement and cultured at 37° C. under 5% CO2 conditions. The medium used was DMEM+10% FBS.

[5] = day 20 of 3D spheroid culture, coated 96-well, 2D adhesion control without supplement = 1.0, ΔΔCt
[6] = day 20 of 3D spheroid culture, 2D control without supplement day 0 = 1.0, ΔΔCt
[7] = spheroids cultured for 20 days (FIG. 17 legend)

Substance: (Pro-Hyp-Gly)n [cell culture supplement]
- HAND1 (mesoderm) gene expression level (increase vs control) [1]: 4.6 fold
- MAP2 (ectoderm) gene expression level (increase vs control) [1]: 24.2 fold
- NANOG gene expression level (increase vs control) [1]: 35.4 fold
- OCT4 gene expression level (increase vs control) [1]: 30.1 fold
- SOX2 gene expression level (increase vs control) [1]: 144.0 fold
- SOX17 (endoderm) gene expression level (increase vs control) [1]: 359.6 fold
- nuclear NANOG protein in cells dispersed from spheroids [2]: strong NANOG antibody-positive green fluorescence
- GATA6 (mesoderm marker) gene expression ([3]; day 20 of 3D spheroid culture): no gene expression of GATA6 (mesoderm marker) was detected
- NANOG gene expression level (increase vs control) [3, 5]: 28.7 fold
- OCT4 gene expression level (increase vs control) [3, 5]: 1.5 fold
- SOX2 gene expression level (increase vs control) [3, 5]: 24.0 fold
- MAP2 gene expression level (increase vs control) [3, 6]: 2.7 fold
- SOX17 gene expression level (increase vs control) [3, 6]: 124.7 fold
- FOXA2 (endoderm) mRNA expression level [3, 7]: decreased
- GATA4 (mesoderm) mRNA expression [3, 7]: undetectable
- spheroid formation in plates coated with solutions diluted further than 256-fold [4]: No formation of spheroids was observed
- dilution of the 0.5% aqueous solution used for coating at which formation of spheroids was observed ([4]; dilutions 4-fold to 1024-fold): ≤ 256 -fold diluted
